Measured values reported in the supplement of paper PMC10307832.

Experiments:
Test in all cases: relative viability (nuclei count vs DMSO), 5 days (fraction); higher = more cells survive
IU1-47 + Trametinib = compound: CC1=CC(=C(N1C2=CC=C(C=C2)Cl)C)C(=O)CN3CCCCC3 [IU1-47] + CC(=O)Nc1cccc(-n2c(=O)n(C3CC3)c(=O)c3c(Nc4ccc(I)cc4F)n(C)c(=O)c(C)c32)c1 [Trametinib] (partner 0.02 µM)
Method in brief: (§1)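 For relative viability, nuclei counts in treated wells were divided by those in vehicle wells. Lung cancer cell lines had been pin-tool dosed in 1536-well plates the day after seeding and cultured for 5 days, then fixed and stained in one step (final 0.05% Triton X-100, 1% formaldehyde, 1 ug/ml Hoechst) and imaged at 4×. Doses were one drug alone or a fixed anchor-drug dose plus five library-drug doses (not always all listed) in √10 steps, and values are duplicate-plate medians.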

IU1-47 + Pictilisib = compound: CC1=CC(=C(N1C2=CC=C(C=C2)Cl)C)C(=O)CN3CCCCC3 [IU1-47] + CS(=O)(=O)N1CCN(Cc2cc3nc(-c4cccc5[nH]ncc45)nc(N4CCOCC4)c3s2)CC1 [Pictilisib] (partner 1 µM)
Method in brief: as §1

IU1-47 + AZD7762 = compound: CC1=CC(=C(N1C2=CC=C(C=C2)Cl)C)C(=O)CN3CCCCC3 [IU1-47] + NC(=O)Nc1cc(-c2cccc(F)c2)sc1C(=O)N[C@H]1CCCNC1 [AZD7762] (partner 0.2 µM)
Method in brief: as §1

FG-4592 + Phenformin = compound: Cc1nc(C(=O)NCC(=O)O)c(O)c2ccc(Oc3ccccc3)cc12 [FG-4592] + N=C(N)NC(=N)NCCc1ccccc1 [Phenformin] (partner 250 µM)
Method in brief: as §1

| Cell Line | relative viability (IU1-47 + Trametinib; first compound 0.08 µM) | relative viability (IU1-47 + Trametinib; first compound 0.253 µM) | relative viability (IU1-47 + Trametinib; first compound 0.8 µM) | relative viability (IU1-47 + Trametinib; first compound 2.53 µM) | relative viability (IU1-47 + Trametinib; first compound 8 µM) | relative viability (IU1-47 + Pictilisib; first compound 0.08 µM) | relative viability (IU1-47 + Pictilisib; first compound 0.253 µM) | relative viability (IU1-47 + Pictilisib; first compound 0.8 µM) | relative viability (IU1-47 + Pictilisib; first compound 2.53 µM) | relative viability (IU1-47 + Pictilisib; first compound 8 µM) | relative viability (IU1-47 + AZD7762; first compound 0.08 µM) | relative viability (IU1-47 + AZD7762; first compound 0.253 µM) | relative viability (IU1-47 + AZD7762; first compound 0.8 µM) | relative viability (IU1-47 + AZD7762; first compound 2.53 µM) | relative viability (IU1-47 + AZD7762; first compound 8 µM) | relative viability (FG-4592 + Phenformin; first compound 0.08 µM) | relative viability (FG-4592 + Phenformin; first compound 0.253 µM) | relative viability (FG-4592 + Phenformin; first compound 0.8 µM) | relative viability (FG-4592 + Phenformin; first compound 2.53 µM) | relative viability (FG-4592 + Phenformin; first compound 8 µM) |
| --- | --- | --- | --- | --- | --- | --- | --- | --- | --- | --- | --- | --- | --- | --- | --- | --- | --- | --- | --- | --- |
| NCI-H1755 | 0.794 | 0.756 | 0.891 | 0.812 | 0.794 | 0.433 | 0.419 | 0.503 | 0.334 | 0.318 | 0.429 | 0.557 | 0.57 | 0.443 | 0.377 | 0.588 | 0.566 | 0.556 | 0.581 | 0.627 |
| HCC-78 | 0.929 | 0.812 | 0.814 | 0.515 | 0.939 | 0.192 | 0.19 | 0.218 | 0.189 | 0.206 | 0.606 | 0.546 | 0.638 | 0.654 | 0.609 | 0.683 | 0.621 | 0.809 | 0.723 | 0.716 |
| IA-LM | – | – | – | – | – | 0.333 | 0.374 | 0.306 | 0.394 | 0.348 | – | – | – | – | – | – | – | – | – | – |
| NCI-H322M | 0.547 | 0.487 | 0.503 | 0.464 | 0.55 | 0.56 | 0.478 | 0.514 | 0.517 | 0.513 | 0.671 | 0.696 | 0.54 | 0.615 | 0.488 | 0.597 | 0.716 | 0.728 | 0.715 | 0.708 |
| NCI-H3122 | 0.253 | 0.287 | 0.268 | 0.309 | 0.222 | 0.556 | 0.615 | 0.666 | 0.625 | 0.581 | 1.08 | 1.08 | 1.02 | 1.02 | 0.88 | 0.42 | 0.349 | 0.398 | 0.334 | 0.385 |
| COR-L23 | 0.579 | 0.578 | 0.595 | 0.534 | 0.788 | 0.936 | 0.877 | 0.874 | 0.652 | 0.905 | – | – | – | – | – | 0.467 | 0.375 | 0.477 | 0.411 | 0.437 |
| NCI-H2023 | 0.563 | 0.636 | 0.607 | 0.608 | 0.557 | 0.22 | 0.214 | 0.274 | 0.178 | 0.182 | – | – | – | – | – | 0.427 | 0.38 | 0.437 | 0.442 | 0.379 |
| COR-L 105 | 0.522 | 0.422 | 0.45 | 0.461 | 0.459 | 0.421 | 0.411 | 0.352 | 0.379 | 0.396 | – | – | – | – | – | 0.46 | 0.432 | 0.456 | 0.437 | 0.45 |
| NCI-H520 | 0.661 | 0.671 | 0.821 | 0.456 | 0.633 | 0.303 | 0.297 | 0.378 | 0.331 | 0.237 | – | – | – | – | – | 0.31 | 0.595 | – | 0.51 | 0.465 |
| SK-LU-1 | 0.52 | 0.542 | 0.543 | 0.491 | 0.395 | 0.668 | 0.728 | 0.578 | 0.58 | 0.382 | – | – | – | – | – | 0.445 | 0.387 | 0.456 | 0.49 | 0.5 |
| NCI-H522 | 0.826 | 0.747 | 0.708 | 0.715 | 0.865 | – | – | – | – | – | 0.889 | 0.726 | 0.969 | 0.691 | 1 | 0.711 | 0.583 | 0.562 | 0.669 | 0.641 |
| NCI-H1299 | – | – | – | – | – | 0.893 | 0.881 | 0.749 | 1.05 | 0.911 | – | – | – | – | – | – | – | – | – | – |
| NCI-H1650 | 0.515 | 0.766 | 0.612 | 0.62 | 0.459 | 0.634 | 0.587 | 0.682 | 0.295 | 0.27 | – | – | – | – | – | 0.464 | 0.448 | 0.338 | 0.586 | 0.51 |
| NCI-H2009 | 0.257 | 0.3 | 0.254 | 0.274 | 0.25 | 0.876 | 0.948 | 0.815 | 0.369 | 0.882 | – | – | – | – | – | 0.502 | 0.402 | 0.53 | 0.454 | 0.549 |
| NCI-H1648 | 0.624 | 0.535 | 0.463 | 0.407 | 0.391 | – | – | – | – | – | 0.61 | 0.727 | 0.821 | 0.732 | 0.508 | – | – | – | – | – |
| SK-MES-1 | 0.585 | 0.606 | 0.567 | 0.629 | 0.584 | 0.402 | 0.396 | 0.351 | 0.398 | 0.371 | – | – | – | – | – | 0.626 | 0.66 | 0.669 | 0.596 | 0.674 |
| NCI-H2342 | 0.85 | 0.882 | 1.05 | 0.973 | 0.89 | – | – | – | – | – | 0.526 | 0.588 | 0.57 | 0.507 | 0.486 | 0.521 | 0.531 | 0.519 | 0.613 | 0.469 |
| SW 900 | 0.876 | – | 0.783 | 0.881 | 0.716 | – | – | – | – | – | 0.694 | – | 0.695 | 0.611 | 0.683 | 0.584 | 0.687 | 0.439 | 0.47 | 0.586 |
| A549 | – | – | – | – | – | 0.637 | 0.53 | 0.542 | 0.673 | 0.423 | – | – | – | – | – | 0.166 | 0.154 | 0.159 | 0.191 | 0.216 |
| NCI-H661 | 0.576 | 0.57 | 0.576 | 0.464 | 0.471 | 0.376 | 0.406 | 0.414 | 0.349 | 0.363 | – | – | – | – | – | 0.271 | 0.281 | 0.264 | 0.274 | 0.276 |
| NCI-H1563 | – | – | – | – | – | 0.69 | 0.672 | 0.663 | 0.627 | 0.732 | – | – | – | – | – | 0.663 | 0.735 | 0.684 | 0.665 | 0.603 |
| ABC-1 | – | – | – | – | – | 0.766 | 0.711 | 0.895 | – | 0.671 | 0.765 | 0.671 | 0.774 | – | 0.729 | 0.232 | 0.201 | 0.211 | 0.258 | 0.254 |
